From ChEMBL document CHEMBL2311510, “A new single-photon emission computed tomography (SPECT) imaging agent for serotonin transporters: [(125)I]Flip-IDAM, (2-((2-((dimethylamino)methyl)-4-iodophenyl)thio)phenyl)methanol” (Bioorg Med Chem Lett, 2013)

How the values were obtained:
Pancreas [1] = assay: Biodistribution in Sprague-Dawley rat pancreas assessed as compound level per organ at 11 uCi, iv measured 60 mins post compound dose; assay type: ADME, organism-based; details: in vivo, 1 h
Nucleic Acid [2] = assay: Ratio of drug level in hippocampus to cerebellum in Sprague-Dawley rat at 11 uCi, iv measured 30 mins post compound dose; assay type: ADME, organism-based; details: in vivo, 0.5 h
Nucleic Acid [3] = assay: Ratio of drug level in cortex to cerebellum in Sprague-Dawley rat at 11 uCi, iv measured 30 mins post compound dose; assay type: ADME, organism-based; details: in vivo, 0.5 h
Spleen [4] = assay: Biodistribution in Sprague-Dawley rat spleen assessed as compound level per organ at 11 uCi, iv measured 60 mins post compound dose; assay type: ADME, organism-based; details: in vivo, 1 h
Heart = assay: Biodistribution in Sprague-Dawley rat heart assessed as compound level per organ at 11 uCi, iv measured 120 mins post compound dose; assay type: ADME, organism-based; details: in vivo, 2 h
Zone of skin [5] = assay: Biodistribution in Sprague-Dawley rat skin assessed as compound level per organ at 11 uCi, iv measured 2 mins post compound dose; assay type: ADME, organism-based; details: in vivo
Lung [6] = assay: Biodistribution in Sprague-Dawley rat lung at 11 uCi, iv measured 120 mins post compound dose; assay type: ADME, organism-based; details: in vivo, 2 h
Lung [7] = assay: Biodistribution in Sprague-Dawley rat lung at 11 uCi, iv measured 2 mins post compound dose; assay type: ADME, organism-based; details: in vivo
Pancreas [8] = assay: Biodistribution in Sprague-Dawley rat pancreas assessed as compound level per organ at 11 uCi, iv measured 120 mins post compound dose; assay type: ADME, organism-based; details: in vivo, 2 h
Bone [9] = assay: Biodistribution in Sprague-Dawley rat bone assessed as compound level per organ at 11 uCi, iv measured 120 mins post compound dose; assay type: ADME, organism-based, Bone element; details: in vivo, 2 h
Brain [10] = assay: Biodistribution in Sprague-Dawley rat brain assessed as compound level per organ at 11 uCi, iv measured 2 mins post compound dose; assay type: ADME, organism-based; details: in vivo
Brain [11] = assay: Biodistribution in Sprague-Dawley rat brain at 11 uCi, iv measured 2 mins post compound dose; assay type: ADME, organism-based; details: in vivo
Bone [12] = assay: Biodistribution in Sprague-Dawley rat bone at 11 uCi, iv measured 120 mins post compound dose; assay type: ADME, organism-based, Bone element; details: in vivo, 2 h
Bone [13] = assay: Biodistribution in Sprague-Dawley rat bone at 11 uCi, iv measured 60 mins post compound dose; assay type: ADME, organism-based, Bone element; details: in vivo, 1 h
Pancreas [14] = assay: Biodistribution in Sprague-Dawley rat pancreas assessed as compound level per organ at 11 uCi, iv measured 30 mins post compound dose; assay type: ADME, organism-based; details: in vivo, 0.5 h
Muscle tissue [15] = assay: Biodistribution in Sprague-Dawley rat muscle assessed as compound level per organ at 11 uCi, iv measured 60 mins post compound dose; assay type: ADME, organism-based; details: in vivo, 1 h
Muscle tissue [16] = assay: Biodistribution in Sprague-Dawley rat muscle at 11 uCi, iv measured 30 mins post compound dose; assay type: ADME, organism-based; details: in vivo, 0.5 h
Spleen [17] = assay: Biodistribution in Sprague-Dawley rat spleen assessed as compound level per organ at 11 uCi, iv measured 2 mins post compound dose; assay type: ADME, organism-based; details: in vivo
Brain [18] = assay: Biodistribution in Sprague-Dawley rat rest of brain at 11 uCi, iv measured 120 mins post compound dose; assay type: ADME, organism-based; details: in vivo, 2 h
Pancreas [19] = assay: Biodistribution in Sprague-Dawley rat pancreas at 11 uCi, iv measured 2 mins post compound dose; assay type: ADME, organism-based; details: in vivo
Nucleic Acid [20] = assay: Ratio of drug level in cortex to cerebellum in Sprague-Dawley rat at 11 uCi, iv measured 60 mins post compound dose; assay type: ADME, organism-based; details: in vivo, 1 h
Blood [21] = assay: Biodistribution in Sprague-Dawley rat blood at 11 uCi, iv measured 60 mins post compound dose; assay type: ADME, organism-based; details: in vivo, 1 h
Cortex [22] = assay: Biodistribution in Sprague-Dawley rat cortex at 11 uCi, iv measured 120 mins post compound dose; assay type: ADME, organism-based; details: in vivo, 2 h
Lung [23] = assay: Biodistribution in Sprague-Dawley rat lung assessed as compound level per organ at 11 uCi, iv measured 60 mins post compound dose; assay type: ADME, organism-based; details: in vivo, 1 h
Nucleic Acid [24] = assay: Ratio of drug level in rest of brain region to cerebellum in Sprague-Dawley rat at 11 uCi, iv measured 30 mins post compound dose; assay type: ADME, organism-based; details: in vivo, 0.5 h
Cerebellum [25] = assay: Biodistribution in Sprague-Dawley rat cerebellum at 11 uCi, iv measured 30 mins post compound dose; assay type: ADME, organism-based; details: in vivo, 0.5 h
Blood [26] = assay: Biodistribution in Sprague-Dawley rat blood at 11 uCi, iv measured 120 mins post compound dose; assay type: ADME, organism-based; details: in vivo, 2 h
Cortex [27] = assay: Biodistribution in Sprague-Dawley rat cortex at 11 uCi, iv measured 30 mins post compound dose; assay type: ADME, organism-based; details: in vivo, 0.5 h
Brain [28] = assay: Biodistribution in Sprague-Dawley rat brain assessed as compound level per organ at 11 uCi, iv measured 30 mins post compound dose; assay type: ADME, organism-based; details: in vivo, 0.5 h
Kidney [29] = assay: Biodistribution in Sprague-Dawley rat kidney at 11 uCi, iv measured 2 mins post compound dose; assay type: ADME, organism-based; details: in vivo
Cerebellum [30] = assay: Biodistribution in Sprague-Dawley rat cerebellum at 11 uCi, iv measured 120 mins post compound dose; assay type: ADME, organism-based; details: in vivo, 2 h
Liver [31] = assay: Biodistribution in Sprague-Dawley rat liver assessed as compound level per organ at 11 uCi, iv measured 2 mins post compound dose; assay type: ADME, organism-based; details: in vivo
Muscle tissue [32] = assay: Biodistribution in Sprague-Dawley rat muscle at 11 uCi, iv measured 60 mins post compound dose; assay type: ADME, organism-based; details: in vivo, 1 h
Brain [33] = assay: Biodistribution in Sprague-Dawley rat brain at 11 uCi, iv measured 60 mins post compound dose; assay type: ADME, organism-based; details: in vivo, 1 h
Pancreas [34] = assay: Biodistribution in Sprague-Dawley rat pancreas assessed as compound level per organ at 11 uCi, iv measured 2 mins post compound dose; assay type: ADME, organism-based; details: in vivo
Pancreas [35] = assay: Biodistribution in Sprague-Dawley rat pancreas at 11 uCi, iv measured 30 mins post compound dose; assay type: ADME, organism-based; details: in vivo, 0.5 h
Muscle tissue [36] = assay: Biodistribution in Sprague-Dawley rat muscle at 11 uCi, iv measured 120 mins post compound dose; assay type: ADME, organism-based; details: in vivo, 2 h
Liver [37] = assay: Biodistribution in Sprague-Dawley rat liver assessed as compound level per organ at 11 uCi, iv measured 120 mins post compound dose; assay type: ADME, organism-based; details: in vivo, 2 h
Blood [38] = assay: Biodistribution in Sprague-Dawley rat blood assessed as compound level per organ at 11 uCi, iv measured 60 mins post compound dose; assay type: ADME, organism-based; details: in vivo, 1 h
Nucleic Acid [39] = assay: Ratio of drug level in hippocampus to cerebellum in Sprague-Dawley rat at 11 uCi, iv measured 60 mins post compound dose; assay type: ADME, organism-based; details: in vivo, 1 h
Bone [40] = assay: Biodistribution in Sprague-Dawley rat bone at 11 uCi, iv measured 30 mins post compound dose; assay type: ADME, organism-based, Bone element; details: in vivo, 0.5 h
Zone of skin [41] = assay: Biodistribution in Sprague-Dawley rat skin assessed as compound level per organ at 11 uCi, iv measured 30 mins post compound dose; assay type: ADME, organism-based; details: in vivo, 0.5 h
Kidney [42] = assay: Biodistribution in Sprague-Dawley rat kidney at 11 uCi, iv measured 120 mins post compound dose; assay type: ADME, organism-based; details: in vivo, 2 h
Spleen [43] = assay: Biodistribution in Sprague-Dawley rat spleen assessed as compound level per organ at 11 uCi, iv measured 30 mins post compound dose; assay type: ADME, organism-based; details: in vivo, 0.5 h
Blood [44] = assay: Biodistribution in Sprague-Dawley rat blood assessed as compound level per organ at 11 uCi, iv measured 120 mins post compound dose; assay type: ADME, organism-based; details: in vivo, 2 h
Bone [45] = assay: Biodistribution in Sprague-Dawley rat bone assessed as compound level per organ at 11 uCi, iv measured 60 mins post compound dose; assay type: ADME, organism-based, Bone element; details: in vivo, 1 h
Bone [46] = assay: Biodistribution in Sprague-Dawley rat bone assessed as compound level per organ at 11 uCi, iv measured 2 mins post compound dose; assay type: ADME, organism-based, Bone element; details: in vivo
Brain [47] = assay: Biodistribution in Sprague-Dawley rat brain at 11 uCi, iv measured 120 mins post compound dose; assay type: ADME, organism-based; details: in vivo, 2 h
Spleen [48] = assay: Biodistribution in Sprague-Dawley rat spleen at 11 uCi, iv measured 2 mins post compound dose; assay type: ADME, organism-based; details: in vivo
Nucleic Acid [49] = assay: Ratio of drug level in hypothalamus to cerebellum in Sprague-Dawley rat at 11 uCi, iv measured 120 mins post compound dose; assay type: ADME, organism-based; details: in vivo, 2 h
Nucleic Acid [50] = assay: Ratio of drug level in hypothalamus to cerebellum in Sprague-Dawley rat at 11 uCi, iv measured 30 mins post compound dose; assay type: ADME, organism-based; details: in vivo, 0.5 h

CN(C)Cc1cc([125I])ccc1Sc1ccccc1CO
Drug uptake (Pancreas [1]): 0.1 %ID
Ratio (Nucleic Acid [2]): 2.67
Ratio (Nucleic Acid [3]): 0.82
Drug uptake (Spleen [4]): 0.14 %ID
Drug uptake (Heart): 0.12 %ID
Drug uptake (Zone of skin [5]): 8.86 %ID
Drug uptake (Lung [6]): 0.27 % ID/g
Drug uptake (Lung [7]): 3.23 % ID/g
Drug uptake (Pancreas [8]): 0.06 %ID
Drug uptake (Bone [9]): 0.01 %ID
Drug uptake (Brain [10]): 2.52 %ID
Drug uptake (Brain [11]): 1.21 % ID/g
Drug uptake (Bone [12]): 0.16 % ID/g
Drug uptake (Bone [13]): 0.23 % ID/g
Drug uptake (Pancreas [14]): 0.26 %ID
Drug uptake (Muscle tissue [15]): 11 %ID
Drug uptake (Muscle tissue [16]): 0.21 % ID/g
Drug uptake (Spleen [17]): 1.04 %ID
Drug uptake (Brain [18]): 0.06 % ID/g
Drug uptake (Pancreas [19]): 1.52 % ID/g
Ratio (Nucleic Acid [20]): 1.69
Drug uptake (Blood [21]): 0.22 % ID/g
Drug uptake (Cortex [22]): 0.06 % ID/g
Drug uptake (Lung [23]): 0.73 %ID
Ratio (Nucleic Acid [24]): 2.22
Drug uptake (Cerebellum [25]): 0.25 % ID/g
Drug uptake (Blood [26]): 0.19 % ID/g
Drug uptake (Cortex [27]): 0.21 % ID/g
Drug uptake (Brain [28]): 1.13 %ID
Drug uptake (Kidney [29]): 2.6 % ID/g
Drug uptake (Cerebellum [30]): 0.05 % ID/g
Drug uptake (Liver [31]): 9.42 %ID
Drug uptake (Muscle tissue [32]): 0.13 % ID/g
Drug uptake (Brain [33]): 0.14 % ID/g
Drug uptake (Pancreas [34]): 0.6 %ID
Drug uptake (Pancreas [35]): 0.56 % ID/g
Drug uptake (Muscle tissue [36]): 0.06 % ID/g
Drug uptake (Liver [37]): 2.69 %ID
Drug uptake (Blood [38]): 3.26 %ID
Ratio (Nucleic Acid [39]): 1.83
Drug uptake (Bone [40]): 0.4 % ID/g
Drug uptake (Zone of skin [41]): 9.38 %ID
Drug uptake (Kidney [42]): 0.57 % ID/g
Drug uptake (Spleen [43]): 0.23 %ID
Drug uptake (Blood [44]): 2.71 %ID
Drug uptake (Bone [45]): 0.01 %ID
Drug uptake (Bone [46]): 0.03 %ID
Drug uptake (Brain [47]): 0.06 % ID/g
Drug uptake (Spleen [48]): 1.61 % ID/g
Ratio (Nucleic Acid [49]): 1.93
Ratio (Nucleic Acid [50]): 4.01
